# Laboratory results published in ChEMBL document CHEMBL1201862, “PubChem BioAssay data set” (2004).
#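 Five compound concentrations were applied to cells in 96-well plates for 48 hours; endpoints were derived by simple linear interpolation of the resulting dose-response curve. GI50 marks 50% less growth.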 Activity calls are given as the source filed them. Cut-off read from the data, not from the text of the source: active = GI50 up to about 1.1 µM and inactive = higher. Where a SMILES comes first, the peptide text is derived from it. Non-standard residues stand in square brackets, D forms with d. Residues, ends and D or L forms follow the SMILES beside them. The star is where a group is joined. *: point of attachment. Bn2Val = CC(C)[C@@H](C(=O)*)N(Cc1ccccc1)Cc1ccccc1; NMeV = CN[C@H](C(=O)O)C(C)C; X32 = COc1ccc(CN*)c(OC)c1; dNMeA = CN[C@H](C)C(=O)O; Cbz = O=C(OCc1ccccc1)*
# Tests used:
# Experiment in all cases: DTP human tumour cell line panel, 48 h
# SNB-75 = test system: SNB-75
# RXF 393 = test system: RXF 393
# HCC 2998 = test system: HCC 2998
# 786-0 = test system: 786-0
# OVCAR-3 = test system: OVCAR-3
# RPMI-8226 = test system: RPMI-8226
# U-251 = test system: U-251
# EKVX = test system: EKVX
# NCI/ADR-RES = test system: NCI/ADR-RES
# OVCAR-8 = test system: OVCAR-8
# COLO 205 = test system: COLO 205
# LOX IMVI = test system: LOX IMVI
# IGROV-1 = test system: IGROV-1
# SW-620 = test system: SW-620
# HT-29 = test system: HT-29
# MDA-MB-435 = test system: MDA-MB-435
# M14 = test system: M14
# MCF7 = test system: MCF7
# HOP-92 = test system: HOP-92
SMILES,GI50 (SNB-75),GI50 (RXF 393),GI50 (HCC 2998),GI50 (786-0),GI50 (OVCAR-3),GI50 (RPMI-8226),GI50 (U-251),GI50 (EKVX),GI50 (NCI/ADR-RES),GI50 (OVCAR-8),GI50 (COLO 205),GI50 (LOX IMVI),GI50 (IGROV-1),GI50 (SW-620),GI50 (HT-29),GI50 (MDA-MB-435),GI50 (M14),GI50 (MCF7),GI50 (HOP-92)
Nc1ccc(C(=O)CC(N)C(=O)O)cc1O (stereo unspecified),> 100 µM (inactive),> 100 µM (inactive),> 100 µM (inactive),> 100 µM (inactive),> 100 µM (inactive),> 100 µM (inactive),> 100 µM (inactive),> 100 µM (inactive),> 100 µM (inactive),> 100 µM (inactive),> 100 µM (inactive),> 100 µM (inactive),> 100 µM (inactive),> 100 µM (inactive),> 100 µM (inactive),> 100 µM (inactive),> 100 µM (inactive),> 100 µM (inactive),> 100 µM (inactive)
C=C(c1ccccc1)C1ON(C)CCc2cc(OC)c(OC)cc21 (stereo unspecified),> 100 µM (inactive),> 100 µM (inactive),> 100 µM (inactive),> 100 µM (inactive),> 100 µM (inactive),> 100 µM (inactive),> 100 µM (inactive),> 100 µM (inactive),48.4 µM (inactive),> 100 µM (inactive),> 100 µM (inactive),26.2 µM (inactive),> 100 µM (inactive),> 100 µM (inactive),75.3 µM (inactive),84.9 µM (inactive),> 100 µM (inactive),0.256 µM (active),34.4 µM (inactive)
N#Cc1nc(CCC(C(=O)O)N2C(=O)c3ccccc3C2=O)oc1N (stereo unspecified),> 100 µM (inactive),> 100 µM (inactive),> 100 µM (inactive),> 100 µM (inactive),> 100 µM (inactive),> 100 µM (inactive),> 100 µM (inactive),> 100 µM (inactive),> 100 µM (inactive),> 100 µM (inactive),> 100 µM (inactive),> 10 µM (inactive),> 100 µM (inactive),> 100 µM (inactive),> 100 µM (inactive),> 100 µM (inactive),> 100 µM (inactive),> 100 µM (inactive),> 100 µM (inactive)
Cc1c(CNc2ccc(Cl)c(Cl)c2Cl)cnc2nc(N)nc(N)c12,10.4 µM (inactive),11.9 µM (inactive),3.17 µM (inactive),0.0918 µM (active),13.6 µM (inactive),2.08 µM (inactive),0.172 µM (active),4.2 µM (inactive),> 100 µM (inactive),0.053 µM (active),5.35 µM (inactive),0.064 µM (active),0.499 µM (active),0.179 µM (active),0.162 µM (active),0.107 µM (active),0.942 µM (active),0.792 µM (active),5.85 µM (inactive)
CCOC(=O)CCC(NC(=O)C(Cc1ccccc1)NC(=O)OCc1ccccc1)C(=O)OCC (stereo not drawn) (Cbz-Phe-Glu(OEt)-OEt; configuration not given here),18.7 µM (inactive),17.9 µM (inactive),17.7 µM (inactive),18.1 µM (inactive),15.3 µM (inactive),35 µM (inactive),14.9 µM (inactive),20.4 µM (inactive),18.2 µM (inactive),19.5 µM (inactive),19.4 µM (inactive),14.7 µM (inactive),18.1 µM (inactive),18.2 µM (inactive),20.2 µM (inactive),18.3 µM (inactive),15.9 µM (inactive),19.2 µM (inactive),18.5 µM (inactive)
c1cncc(C2(c3cc4ccccc4[nH]3)COCO2)c1 (stereo unspecified),> 100 µM (inactive),> 100 µM (inactive),> 100 µM (inactive),> 100 µM (inactive),> 100 µM (inactive),> 100 µM (inactive),> 100 µM (inactive),> 100 µM (inactive),> 100 µM (inactive),> 100 µM (inactive),19.1 µM (inactive),> 100 µM (inactive),> 100 µM (inactive),> 100 µM (inactive),> 100 µM (inactive),> 100 µM (inactive),> 100 µM (inactive),> 100 µM (inactive),> 100 µM (inactive)
OC(CC(c1ccccc1)c1ccc(Cl)cc1)c1ccc(Cl)cc1 (stereo unspecified),29.4 µM (inactive),24.8 µM (inactive),45.5 µM (inactive),34.1 µM (inactive),33.6 µM (inactive),26.9 µM (inactive),39.7 µM (inactive),30.5 µM (inactive),33.5 µM (inactive),36.8 µM (inactive),18.5 µM (inactive),27.9 µM (inactive),35.8 µM (inactive),40.7 µM (inactive),35.6 µM (inactive),27.4 µM (inactive),37.3 µM (inactive),28.4 µM (inactive),26.4 µM (inactive)
CC(C)(C)C1CCC2c3c([nH]c4ccccc34)C3C(=O)N(c4ccc([N+](=O)[O-])cc4)C(=O)C3C2C1 (stereo unspecified),16.9 µM (inactive),10.4 µM (inactive),9.14 µM (inactive),5.11 µM (inactive),10.7 µM (inactive),27 µM (inactive),15.6 µM (inactive),25.3 µM (inactive),14.9 µM (inactive),19 µM (inactive),8.71 µM (inactive),8.34 µM (inactive),11.5 µM (inactive),21 µM (inactive),3.89 µM (inactive),28.1 µM (inactive),23.9 µM (inactive),2.79 µM (inactive),2.7 µM (inactive)
COc1ccc(Cn2c3ccc([N+](=O)[O-])cc3c(=O)n2Cc2ccccn2)cc1,37.8 µM (inactive),86.5 µM (inactive),> 100 µM (inactive),> 100 µM (inactive),> 100 µM (inactive),34.5 µM (inactive),> 100 µM (inactive),66.5 µM (inactive),39.7 µM (inactive),57.7 µM (inactive),> 100 µM (inactive),78.2 µM (inactive),> 100 µM (inactive),> 100 µM (inactive),> 100 µM (inactive),76.4 µM (inactive),46 µM (inactive),> 100 µM (inactive),90.6 µM (inactive)
O=C1Nc2cccc(Cl)c2/C1=C\c1c(-c2ccccc2)nc2n1CCS2,24 µM (inactive),19.6 µM (inactive),21.3 µM (inactive),18 µM (inactive),19.4 µM (inactive),16.5 µM (inactive),19.6 µM (inactive),26.1 µM (inactive),16.3 µM (inactive),24.7 µM (inactive),18.8 µM (inactive),16 µM (inactive),12.8 µM (inactive),14.9 µM (inactive),20.3 µM (inactive),18.2 µM (inactive),20.9 µM (inactive),18.4 µM (inactive),20 µM (inactive)
CC#CC(O)(C(=O)OCCCN(C)C)C1CCCCC1 (stereo unspecified),> 100 µM (inactive),> 100 µM (inactive),> 100 µM (inactive),> 100 µM (inactive),> 100 µM (inactive),> 100 µM (inactive),> 100 µM (inactive),> 100 µM (inactive),> 100 µM (inactive),> 100 µM (inactive),> 100 µM (inactive),> 100 µM (inactive),> 100 µM (inactive),> 100 µM (inactive),> 100 µM (inactive),> 100 µM (inactive),> 100 µM (inactive),> 100 µM (inactive),> 100 µM (inactive)
CCc1nnc2sc(-c3ccc(-c4ccccc4[N+](=O)[O-])o3)nn12,> 100 µM (inactive),57.9 µM (inactive),50.1 µM (inactive),54.8 µM (inactive),32.1 µM (inactive),20.7 µM (inactive),40.6 µM (inactive),21.6 µM (inactive),27 µM (inactive),50.7 µM (inactive),34.9 µM (inactive),36.2 µM (inactive),47.9 µM (inactive),34 µM (inactive),35.6 µM (inactive),20.3 µM (inactive),37.6 µM (inactive),19.7 µM (inactive),84.7 µM (inactive)
COC(=O)c1cc(-c2ccc3ccccc3c2)nc(O)c1C#N,> 100 µM (inactive),> 100 µM (inactive),17.1 µM (inactive),> 100 µM (inactive),> 100 µM (inactive),> 100 µM (inactive),> 100 µM (inactive),71.4 µM (inactive),> 100 µM (inactive),> 100 µM (inactive),> 100 µM (inactive),> 100 µM (inactive),> 100 µM (inactive),> 100 µM (inactive),> 100 µM (inactive),> 100 µM (inactive),> 100 µM (inactive),> 100 µM (inactive),> 100 µM (inactive)
COc1ccc(CNC(=O)[C@@H]2CCCN2C(=O)[C@@H](C)N(C)C(=O)[C@H](C(C)C)N(C)C(=O)[C@@H](NC(=O)[C@H](C(C)C)N(Cc2ccccc2)Cc2ccccc2)C(C)C)c(OC)c1 (Bn2Val-V[NMeV][dNMeA]P-X32),1.52 µM (inactive),1.85 µM (inactive),2.33 µM (inactive),3.28 µM (inactive),3.63 µM (inactive),2.67 µM (inactive),2.25 µM (inactive),2.69 µM (inactive),2.97 µM (inactive),6.41 µM (inactive),2.29 µM (inactive),2.84 µM (inactive),3.4 µM (inactive),3.5 µM (inactive),1.74 µM (inactive),2.61 µM (inactive),2.84 µM (inactive),3.19 µM (inactive),2.74 µM (inactive)
